Converted amounts (≈) assume the structure as drawn.
What was measured:
[1] = tested on: RPMI8226 cell line; assay: multiple myeloma cell growth inhibition, MTT; format: cell-based; conditions: Homo sapiens, RPMI-8226; for inhibition at 16 µg/mL: RPMI8226, 16 μg/mL compound, 72 h, read-out: IR (cell proliferation inhibition rate); for IC50: RPMI8226, 72 h
Description: Multiple myeloma cell lines: RPMI8226 (multiple myeloma), purchased from Fuxiang Bio-tech Co. Ltd., Shanghai, China.
(§1) Obtaining 6000 well-growing cells as above and inoculating them into wells of a 96-well cell culture plate. The culture medium is the 1640 cell culture medium containing 10% fetal bovine serum. After adding the 2-substituted oleanolic acid derivatives of different concentrations and mixing uniformly, placing the plate in a carbon dioxide cell incubator (5% CO2) at 37° C. and incubated for 72 hours. Then the relative number of viable cells is determined by MTT method. In this experiment, cell proliferation inhibition rate in control group (not treated with any compound) is set as 0%.

[2] = tested on: Kasumi-1 cell line; assay: leukemia cell growth inhibition, MTT; format: cell-based; conditions: Homo sapiens; for inhibition at 16 µg/mL: Kasumi-1, 16 μg/mL compound, 72 h, read-out: IR (cell proliferation inhibition rate); for IC50: Kasumi-1, 72 h
Excerpt: (§2) Leukemia cell lines: leukemia cell lines: K562/adr (drug-resistant, chronic myeloid leukemia, CML), NB4 (acute promyelocytic leukemia, AML), Kasumi-1 (acute myeloid leukemia M2 type, AML-M2), Jurkat (acute lymphoblastic leukemia, ALL), all of which are donated by Cancer Research Institute of Zhejiang University, China; and H9 (acute lymphoblastic leukemia, ALL), which is purchased from China Center for Type Culture Collection (CCTCC).
as §1, with “well-growing leukemia” for “well-growing”, “cells” for “cells as above”

[3] = tested on: K562/adr cell line; assay: leukemia cell growth inhibition, MTT; format: cell-based; conditions: Homo sapiens, 72 h; for IC50: K562/Adr; for inhibition at 16 µg/mL: K562/adr, 16 μg/mL compound, read-out: IR (cell proliferation inhibition rate)
Excerpt: as §2
as §1, with “well-growing leukemia” for “well-growing”, “cells” for “cells as above”

[4] = tested on: NB4 cell line; assay: leukemia cell growth inhibition, MTT; format: cell-based; conditions: Homo sapiens, NB-4; for inhibition at 16 µg/mL: NB4, 16 μg/mL compound, 72 h, read-out: IR (cell proliferation inhibition rate); for IC50: NB4, 72 h
Excerpt: as §2
as §1, with “well-growing leukemia” for “well-growing”, “cells” for “cells as above”

[5] = tested on: H9 cell line; assay: leukemia cell growth inhibition, MTT; format: cell-based; conditions: Homo sapiens; for IC50: H9, 72 h; for inhibition at 16 µg/mL: H9, 16 μg/mL compound, 72 h, read-out: IR (cell proliferation inhibition rate)
Excerpt: as §2
as §1, with “well-growing leukemia” for “well-growing”, “cells” for “cells as above”

[6] = tested on: Jurkat cell line; assay: leukemia cell growth inhibition, MTT; format: cell-based; conditions: Homo sapiens, 72 h; for inhibition at 16 µg/mL: 16 μg/mL compound, read-out: IR (cell proliferation inhibition rate)
Excerpt: as §2
as §1, with “well-growing leukemia” for “well-growing”, “cells” for “cells as above”

[7] = tested on: Hep-2 cell line; assay: solid tumor cell growth inhibition, MTT; format: cell-based; conditions: Homo sapiens; for IC50: HEp-2, 72 h; for inhibition at 16 µg/mL: Hep-2, 16 μg/mL compound, 72 h, read-out: IR (cell proliferation inhibition rate)
Description: (§3) Hep-2 (laryngeal carcinoma), A549 (human lung cancer), CaES-17 (esophageal cancer cell), PC-3 (prostate cancer), CNE (nasopharyngeal carcinoma cell), and SK-OV-3 (ovarian cancer cell), all of which are purchased from China Center For Type Culture Collection; RKO (human colon adenocarcinoma cell), MGC 803 (human gastric cancer cell), MG63 (osteosarcoma) and U87 MG (malignant glioma cell), all of which are purchased from Fuxiang Bio-tech Co. Ltd., Shanghai, China; PANC-1 (pancreatic cancer), Hep G2 (human liver cancer cell), Becap37 (human breast cancer cell), and Hela (human cervical cancer cell), all of which are donated by Cancer Research Institute of Zhejiang University, China.
(§4) Obtaining 4000 well-growing human solid tumor cells and inoculating them into wells of a 96-well cell culture plate. The culture medium is DMEM High Glucose cell culture medium containing 10% fetal bovine serum. The plate is placed in a carbon dioxide cell incubator (5% CO2) at 37° C. for 24 hours. After adding the 2-substituted oleanolic acid derivatives of different concentrations and mixing uniformly, the plate is placed in a carbon dioxide cell incubator (5% CO2) at 37° C. and incubated for 72 hours. Then the relative number of the living cells is determined by MTT method. In this experiment, the cell proliferation inhibition rate in control group (not treated with any compound) is set as 0%.

[8] = tested on: Hela cell line; assay: solid tumor cell growth inhibition, MTT; format: cell-based; conditions: Homo sapiens, 72 h; for IC50: HeLa; for inhibition at 16 µg/mL: Hela, 16 μg/mL compound, read-out: IR (cell proliferation inhibition rate)
Description: as §3, §4

[9] = tested on: MGC 803 cell line; assay: solid tumor cell growth inhibition, MTT; format: cell-based; conditions: Homo sapiens; for inhibition at 16 µg/mL: MGC 803, 16 μg/mL compound, 72 h, read-out: IR (cell proliferation inhibition rate); for IC50: MGC 803, 72 h
Description: as §3, §4

[10] = tested on: PANC-1 cell line; assay: solid tumor cell growth inhibition, MTT; format: cell-based; conditions: Homo sapiens; for IC50: PANC-1, 72 h; for inhibition at 16 µg/mL: PANC-1, 16 μg/mL compound, 72 h, read-out: IR (cell proliferation inhibition rate)
Description: as §3, §4

[11] = tested on: MG-63 cell line; assay: solid tumor cell growth inhibition, MTT; format: cell-based; conditions: Homo sapiens; for IC50: MG-63, 72 h; for inhibition at 16 µg/mL: MG-63, 16 μg/mL compound, 72 h, read-out: IR (cell proliferation inhibition rate)
Description: as §3, §4

[12] = tested on: SK-OV-3 cell line; assay: solid tumor cell growth inhibition, MTT; format: cell-based; conditions: Homo sapiens; for IC50: SK-OV-3, 72 h; for inhibition at 16 µg/mL: SK-OV-3, 16 μg/mL compound, 72 h, read-out: IR (cell proliferation inhibition rate)
Description: as §3, §4

[13] = tested on: A549 cell line; assay: solid tumor cell growth inhibition, MTT; format: cell-based; conditions: Homo sapiens; for IC50: A549, 72 h; for inhibition at 16 µg/mL: A549, 16 μg/mL compound, 72 h, read-out: IR (cell proliferation inhibition rate)
Description: as §3, §4

[14] = tested on: CNE cell line; assay: solid tumor cell growth inhibition, MTT; format: cell-based; conditions: Homo sapiens, 72 h; for inhibition at 16 µg/mL: 16 μg/mL compound, read-out: IR (cell proliferation inhibition rate)
Description: as §3, §4

[15] = tested on: CaES-17 cell line; assay: solid tumor cell growth inhibition, MTT; format: cell-based; conditions: Homo sapiens, CaEs17; for inhibition at 16 µg/mL: CaES-17, 16 μg/mL compound, 72 h, read-out: IR (cell proliferation inhibition rate); for IC50: CaES-17, 72 h
Description: as §3, §4

[16] = tested on: PC-3 cell line; assay: solid tumor cell growth inhibition, MTT; format: cell-based; conditions: Homo sapiens; for IC50: PC-3, 72 h; for inhibition at 16 µg/mL: PC-3, 16 μg/mL compound, 72 h, read-out: IR (cell proliferation inhibition rate)
Description: as §3, §4

[17] = tested on: U87 MG cell line; assay: solid tumor cell growth inhibition, MTT; format: cell-based; conditions: Homo sapiens, U-87 MG, 72 h; for inhibition at 16 µg/mL: 16 μg/mL compound, read-out: IR (cell proliferation inhibition rate)
Description: as §3, §4

[18] = tested on: Becap37 cell line; assay: solid tumor cell growth inhibition, MTT; format: cell-based; conditions: Homo sapiens; for inhibition at 16 µg/mL: Becap37, 16 μg/mL compound, 72 h, read-out: IR (cell proliferation inhibition rate); for IC50: Becap37, 72 h
Description: as §3, §4

[19] = tested on: RKO cell line; assay: solid tumor cell growth inhibition, MTT; format: cell-based; conditions: Homo sapiens, 72 h; for inhibition at 16 µg/mL: 16 μg/mL compound, read-out: IR (cell proliferation inhibition rate)
Description: as §3, §4

[20] = tested on: Hep G2 cell line; assay: solid tumor cell growth inhibition, MTT; format: cell-based, human; conditions: Homo sapiens; for inhibition at 16 µg/mL: HepG2, 72 h, Hep G2, 16 μg/mL compound, 72 h, read-out: IR (cell proliferation inhibition rate); for IC50: HepG2, Hep G2, 72 h
Description: as §3, §4

IC50 [1]	IC50 [2]	IC50 [3]	IC50 [4]	IC50 [5]	IC50 [6]	IC50 [7]	IC50 [8]	IC50 [9]	IC50 [10]	Compound	inhibition at 16 µg/mL [1]	inhibition at 16 µg/mL [2]	inhibition at 16 µg/mL [3]	inhibition at 16 µg/mL [4]	inhibition at 16 µg/mL [5]	inhibition at 16 µg/mL [6]	inhibition at 16 µg/mL [7]	inhibition at 16 µg/mL [8]	inhibition at 16 µg/mL [9]	inhibition at 16 µg/mL [10]	also measured
> 16 µg/mL	> 16 µg/mL	12.1 µg/mL (≈ 20.7 µM)	> 16 µg/mL	> 16 µg/mL	> 16 µg/mL	> 16 µg/mL	> 16 µg/mL	> 16 µg/mL	> 16 µg/mL	COC(=O)[C@]12CCC(C)(C)CC1C1=CCC3[C@@]4(C)CC(C(=O)NCCC(C)C)C(=O)C(C)(C)C4CC[C@@]3(C)[C@]1(C)CC2 (some centres unmarked) [BS-OA-031]	4.4%	10%	62.2%	-0.9%	31.9%	-28.5%	10.5%	2.5%	0.8%	-1.4%	IC50 [11]: > 16 µg/mL; inhibition at 16 µg/mL [11]: -1.3%; IC50 [12]: > 16 µg/mL; inhibition at 16 µg/mL [12]: 18%; IC50 [13]: > 16 µg/mL; inhibition at 16 µg/mL [13]: -6.3%; inhibition at 16 µg/mL [14]: 15.8%; IC50 [14]: > 16 µg/mL; inhibition at 16 µg/mL [15]: -4.7%; IC50 [15]: > 16 µg/mL; IC50 [16]: > 16 µg/mL; inhibition at 16 µg/mL [16]: 9.8%; inhibition at 16 µg/mL [17]: 5.3%; IC50 [17]: > 16 µg/mL; inhibition at 16 µg/mL [18]: -5.8%; IC50 [18]: > 16 µg/mL; inhibition at 16 µg/mL [19]: -12.1%; IC50 [19]: > 16 µg/mL; inhibition at 16 µg/mL [20]: 6.7%; IC50 [20]: > 16 µg/mL
> 16 µg/mL	16 µg/mL (≈ 25.9 µM)	12.9 µg/mL (≈ 20.9 µM)	9.82 µg/mL (≈ 15.9 µM)	13.6 µg/mL (≈ 22 µM)	10.8 µg/mL (≈ 17.6 µM)	> 16 µg/mL	15.8 µg/mL (≈ 25.7 µM)	> 16 µg/mL	> 16 µg/mL	COC(=O)[C@]12CCC(C)(C)CC1C1=CCC3[C@@]4(C)CC(C(=O)NCCc5ccccn5)C(=O)C(C)(C)C4CC[C@@]3(C)[C@]1(C)CC2 (some centres unmarked) [BS-OA-032]	30.3%	48.6%	63.7%	85.2%	62.3%	75.4%	5.2%	57%	14.1%	14.5%	IC50 [11]: > 16 µg/mL; inhibition at 16 µg/mL [11]: 4.7%; IC50 [12]: > 16 µg/mL; inhibition at 16 µg/mL [12]: 26.3%; IC50 [13]: > 16 µg/mL; inhibition at 16 µg/mL [13]: -6.6%; inhibition at 16 µg/mL [14]: 23.6%; IC50 [14]: > 16 µg/mL; inhibition at 16 µg/mL [15]: 22%; IC50 [15]: > 16 µg/mL; IC50 [16]: > 16 µg/mL; inhibition at 16 µg/mL [16]: 32.5%; inhibition at 16 µg/mL [17]: 30.4%; IC50 [17]: > 16 µg/mL; inhibition at 16 µg/mL [18]: 4.1%; IC50 [18]: > 16 µg/mL; inhibition at 16 µg/mL [19]: -5.3%; IC50 [19]: > 16 µg/mL; inhibition at 16 µg/mL [20]: 23.7%; IC50 [20]: > 16 µg/mL

— US9156801B2, “2-substituted oleanolic acid derivative, method preparing for same, and application thereof” (HANGZHOU BENSHENG PHARMACEUTICAL CO., LTD., priority 2011, dated 2015)
